{"source": "paper PMC3582512", "about": "“Application of a Novel Microtitre Plate-Based Assay for the Discovery of New Inhibitors of DNA Gyrase and DNA Topoisomerase VI” (PLoS ONE, 2013)", "key": {"[1]": {"molecular_target": "T1, S. shibatae topo VI (Saccharolobus shibatae, UniProt O05207+O05208)", "T1 construct": "gift from Danielle Gadelle (University of Paris XI, Orsay)", "T1 sequence (O05207 whole entry)": "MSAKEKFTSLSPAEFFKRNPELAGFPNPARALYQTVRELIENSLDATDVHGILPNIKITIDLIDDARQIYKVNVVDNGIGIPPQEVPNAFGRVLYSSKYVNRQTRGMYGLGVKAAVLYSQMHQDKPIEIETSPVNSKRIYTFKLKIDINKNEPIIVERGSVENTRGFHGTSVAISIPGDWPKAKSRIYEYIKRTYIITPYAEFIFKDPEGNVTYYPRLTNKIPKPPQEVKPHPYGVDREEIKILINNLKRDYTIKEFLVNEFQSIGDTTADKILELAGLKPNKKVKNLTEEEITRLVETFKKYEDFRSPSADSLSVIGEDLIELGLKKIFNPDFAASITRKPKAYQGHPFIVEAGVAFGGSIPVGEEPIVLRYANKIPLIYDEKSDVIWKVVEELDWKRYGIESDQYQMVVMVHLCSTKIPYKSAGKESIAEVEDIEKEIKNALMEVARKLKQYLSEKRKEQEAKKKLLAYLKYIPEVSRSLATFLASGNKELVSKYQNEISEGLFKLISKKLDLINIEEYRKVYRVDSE", "T1 sequence (O05208 whole entry)": "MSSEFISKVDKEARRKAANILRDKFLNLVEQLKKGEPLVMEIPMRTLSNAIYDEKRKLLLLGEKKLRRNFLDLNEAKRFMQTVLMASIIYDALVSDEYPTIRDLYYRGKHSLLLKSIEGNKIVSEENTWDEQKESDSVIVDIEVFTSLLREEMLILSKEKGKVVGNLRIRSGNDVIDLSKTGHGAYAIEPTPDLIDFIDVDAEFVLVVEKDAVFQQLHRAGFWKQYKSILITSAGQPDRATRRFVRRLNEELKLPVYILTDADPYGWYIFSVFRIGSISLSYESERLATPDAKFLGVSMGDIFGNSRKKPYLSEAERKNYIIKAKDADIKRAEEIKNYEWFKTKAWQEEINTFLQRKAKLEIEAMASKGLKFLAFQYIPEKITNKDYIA", "assay": "Gel-based relaxation assay with S. shibatae topo VI", "assay_type": "biochemical, Sulfolobus shibatae", "procedure": "(§1) The agarose gel-based assay was conducted as previously described, [44], [62]. In brief, topoisomerases were incubated with 0.5 µg of plasmid and the desired concentration of compound for 30 min at 37°C (for DNA gyrase and M. mazei topo VI) or 5 min at 75°C (for S. shibatae topo VI), in a total volume of 30 µL. […] Reactions were stopped by the addition of a loading buffer containing EDTA and the drug extracted by vortexing with either chloroform or aqueous butanol as required. In the case of M. mazei topo VI, it was necessary to include SDS in the loading buffer, at a final concentration of 1%. Samples were loaded onto a 1% agarose gel, run for the appropriate length of time and stained with ethidium bromide before visualisation on a UV transilluminator."}, "[2]": {"molecular_target": "T2, M. mazei topo VI (Methanosarcina mazei, UniProt Q8PUB7+Q8PUB8)", "T2 construct": "His tag; made in house", "T2 sequence (Q8PUB8 whole entry)": "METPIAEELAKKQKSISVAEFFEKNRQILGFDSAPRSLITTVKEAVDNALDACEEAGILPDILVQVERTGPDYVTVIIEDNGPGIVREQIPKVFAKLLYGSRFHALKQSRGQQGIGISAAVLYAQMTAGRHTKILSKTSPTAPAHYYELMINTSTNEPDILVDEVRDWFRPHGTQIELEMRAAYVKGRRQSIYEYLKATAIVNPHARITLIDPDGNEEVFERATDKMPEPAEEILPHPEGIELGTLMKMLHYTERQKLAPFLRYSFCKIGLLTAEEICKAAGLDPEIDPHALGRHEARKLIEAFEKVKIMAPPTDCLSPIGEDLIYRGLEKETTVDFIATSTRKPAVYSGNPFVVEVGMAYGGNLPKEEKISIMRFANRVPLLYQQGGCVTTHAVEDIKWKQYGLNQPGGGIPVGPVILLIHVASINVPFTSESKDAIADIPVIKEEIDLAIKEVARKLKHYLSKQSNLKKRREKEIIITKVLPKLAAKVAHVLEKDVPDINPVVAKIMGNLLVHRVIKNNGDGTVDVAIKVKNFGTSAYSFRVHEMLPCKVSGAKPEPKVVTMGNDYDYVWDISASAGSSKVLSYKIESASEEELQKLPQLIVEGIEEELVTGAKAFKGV", "T2 sequence (Q8PUB7 whole entry)": "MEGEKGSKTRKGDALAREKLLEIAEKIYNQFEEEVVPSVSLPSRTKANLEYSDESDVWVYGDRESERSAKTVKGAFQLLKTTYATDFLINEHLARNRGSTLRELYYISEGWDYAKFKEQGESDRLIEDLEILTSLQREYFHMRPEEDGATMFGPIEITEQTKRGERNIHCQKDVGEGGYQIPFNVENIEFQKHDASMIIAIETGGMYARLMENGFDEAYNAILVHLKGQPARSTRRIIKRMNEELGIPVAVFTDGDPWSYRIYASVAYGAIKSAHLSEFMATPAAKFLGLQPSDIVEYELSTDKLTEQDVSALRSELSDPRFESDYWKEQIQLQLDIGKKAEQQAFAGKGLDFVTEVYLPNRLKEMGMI", "assay": "Agarose gel-based DNA relaxation assay", "assay_type": "biochemical", "details": "for IC50: gel relaxation assay, 1 unit (50 nM) topo VI, read-out: Approx. IC50 against M. mazei topo VI", "procedure": "as §1"}, "[3]": {"test_system": "Arabidopsis thaliana hypocotyl cells", "assay": "Cryo-SEM of Arabidopsis hypocotyls (cell size)", "assay_type": "in vivo", "details": "40 µM, 5 days in the dark; control ∼300 µm", "from_the_text": "Five day old hypocotyls grown on media containing various concentrations of compound were frozen in nitrogen slush and loaded into a Philips XL30 SEM with a cryo stage installed. Samples were sputter coated with platinum and transferred into the microscope chamber for image collection."}, "[4]": {"test_system": "Arabidopsis thaliana columbia (Col-0)", "assay": "Arabidopsis hypocotyl extension assay and plant growth", "assay_type": "in vivo", "procedure": "The hypocotyl extension assay was conducted as previously described, [66]. MS Salts medium (containing micro and macro elements including vitamins, pH 5.8) was supplemented with 1 g/L sucrose and 0.7 g/L phytagel (Sigma) before autoclaving. After the medium cooled to ∼50°C it was divided into 50 mL aliquots and compounds to be tested (or an equivalent amount of appropriate solvent for control plates) then added at the desired concentration under aseptic conditions. The media were then poured into separate 100 mm square Petri dishes and allowed to cool to room temperature in a laminar flow hood. Arabidopsis thaliana columbia (Col-0) seeds were surface sterilised with 5% bleach for 10 min immediately prior to use. The seeds were then washed three times with sterile water under a laminar flow hood. After surface sterilisation the seeds were planted in a grid pattern (32 seeds per dish) and the dishes sealed with surgical tape. The plates were transferred to 4°C and left for 64 h in the dark to vernalise, after which they were transferred to a 22°C growth cabinet. After 2 h of light exposure the plates were stacked vertically in the dark at 22°C to allow for hypocotyl extension along the agar surface. After 4–5 days the hypocotyls were observed using an optical microscope and their length measured. For experiments where the plants were allowed to form rosettes, the Arabidopsis seedlings were grown horizontally under a 16 h day in a 22°C growth cabinet for the indicated number of weeks."}, "[5]": {"molecular_target": "T2, M. mazei topo VI", "assay": "Pyruvate kinase-linked ATPase assay", "assay_type": "biochemical", "details": "data not shown", "procedure": "ATPase assays were performed essentially as described previously except they were adapted to a microplate format using clear, colourless 96-well Microtitre plates (Pro-bind™, Becton Dickinson). Reactions were carried out in 100 µL of the established reaction buffer for either DNA gyrase of M. mazei topo VI [36], [62] supplemented with: 800 µM phosphoenolpyruvate (PEP), 400 µM NADH, 1% (vol/vol) PK/LDH (pyruvate kinase-lactate dehydrogenase mixture in 50% (w/v) glycerol,100 mM KCl, 10 mM HEPES (pH 7.0)) and the desired concentration of hit compound. ATP was initially withheld from the reaction. After 5 min incubation at room temperature the reactions were initiated by the addition of ATP and the absorbance at 340 nm was measured over the course of an hour using a Spectra Max Plus absorbance reader (Molecular Devices). Data were processed by omitting the first 10–15 min of collection and normalising the first retained time point. This was done to exclude artifacts observed within this time frame and for ease of comparison of rates. Controls lacking topoisomerase were used to assess the intrinsic ATPase activity of the test compounds."}, "[6]": {"molecular_target": "T3, E. coli DNA gyrase (Escherichia coli, UniProt P0AES4+P0AES6)", "T3 construct": "made in house", "T3 sequence (P0AES4 whole entry, one chain of several)": "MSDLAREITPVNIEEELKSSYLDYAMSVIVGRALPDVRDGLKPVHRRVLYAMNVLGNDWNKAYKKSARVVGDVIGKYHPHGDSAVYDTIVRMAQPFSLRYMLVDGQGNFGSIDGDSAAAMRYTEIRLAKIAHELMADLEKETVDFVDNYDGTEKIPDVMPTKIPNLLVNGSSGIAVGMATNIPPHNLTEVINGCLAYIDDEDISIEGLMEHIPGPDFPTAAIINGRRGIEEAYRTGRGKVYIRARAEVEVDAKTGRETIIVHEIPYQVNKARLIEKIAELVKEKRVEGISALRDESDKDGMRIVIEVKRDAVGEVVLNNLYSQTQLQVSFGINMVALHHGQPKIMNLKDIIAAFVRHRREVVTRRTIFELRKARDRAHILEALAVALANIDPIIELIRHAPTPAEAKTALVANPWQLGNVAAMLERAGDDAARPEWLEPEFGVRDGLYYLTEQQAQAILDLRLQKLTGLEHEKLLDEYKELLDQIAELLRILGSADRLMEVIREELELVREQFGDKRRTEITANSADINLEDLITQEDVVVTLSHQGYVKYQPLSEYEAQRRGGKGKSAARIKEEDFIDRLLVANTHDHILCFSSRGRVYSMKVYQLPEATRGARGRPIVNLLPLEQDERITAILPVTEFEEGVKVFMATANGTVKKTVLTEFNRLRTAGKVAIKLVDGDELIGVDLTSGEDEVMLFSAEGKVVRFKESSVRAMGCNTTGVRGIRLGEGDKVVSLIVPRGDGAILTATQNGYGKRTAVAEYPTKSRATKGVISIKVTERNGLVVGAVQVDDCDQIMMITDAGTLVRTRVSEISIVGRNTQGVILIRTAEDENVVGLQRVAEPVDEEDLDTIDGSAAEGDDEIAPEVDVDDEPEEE", "assay": "Gel-based gyrase-mediated DNA cleavage assay", "assay_type": "biochemical", "details": "absence of ATP, concentration not given", "procedure": "(§2) Assays to detect the stabilisation of cleavage complexes were identical to the protocol for topoisomerase activity detailed above, except as follows. Cleavage experiments with DNA gyrase were carried out in the absence of ATP and spermidine and 30 µL reactions were stopped with 3 µL 10% SDS and incubated with 3 µL 1 mg/mL proteinase K solution at 37°C for 1 h. For cleavage complex protection assays with suramin, the reaction buffer was modified to contain 4 mM CaCl2 rather than MgCl2."}, "[7]": {"molecular_target": "T3, E. coli DNA gyrase", "assay": "Agarose gel-based DNA supercoiling assay", "assay_type": "biochemical", "procedure": "as §1"}, "[8]": {"molecular_target": "T3, E. coli DNA gyrase", "assay": "Protection from Ca2+-induced, gyrase-mediated DNA cleavage", "assay_type": "biochemical", "details": "80 µM, 4 mM calcium chloride", "procedure": "as §2"}, "[9]": {"test_system": "E. coli strain NR698", "assay": "Bacterial growth inhibition, membrane-permeable strain", "assay_type": "cell-based, Escherichia coli", "details": "liquid and solid media", "procedure": "(§3) For E. coli work, 10 mL cultures of E. coli MG1655 or NR698 were grown overnight at 37°C in LB medium. A 100 µL sample was then added to 10 mL of LB medium containing the desired concentration of compound. The culture was then allowed to grow at 37°C for 5 h and its OD600 measured every hour. For M. smegmatis, a 50 mL culture was grown for 48 h in Middlebrooks 7H11 medium at 37°C. A 100 µL sample was then added to 10 mL of Middlebrooks 7H11 containing the desired concentration of compound. The culture was then allowed to grow at 37°C for 9 h and its OD600 measured every three hours. For colony counting experiments M. smegmatis was grown for 48 h in 50 mL of Middlebrooks 7H9 medium at 37°C. A 100 µL sample was then added to 10 mL of Middlebrooks 7H9 medium containing the desired concentration test compound and allowed to grow at 37°C overnight. After 16 h, 20 µL samples were taken from these cultures and diluted 1 in 10,000 with Middlebrooks 7H9 medium. Petri dishes containing Middlebrooks 7H11 agar were prepared and 100 µL of each diluted culture was spread out. The plates were subsequently stored at 4°C. This was repeated every three hours for six hours, after which the plates were transferred to 37°C for 48 h. The numbers of colonies for each time point were counted manually."}, "[10]": {"molecular_target": "T3, E. coli DNA gyrase", "assay": "Native gel-shift assay, gyrase binding to 147 bp DNA fragment", "details": "100 µM", "procedure": "(§4) In order to test the effects of hit compounds upon DNA binding by topoisomerases, samples of enzyme and drug were prepared under the following conditions in a final volume of 10 μL: 1 nM 147 bp linear fragment of DNA derived from pBR322, [82] 50 mM Tris•HCl (pH 7.5), 100 mM KCl, 5 mM MgCl2, 2 mM DTT, 10% w/v glycerol. Samples were incubated for 30 min at room temperature before being run on a 5% (29:1) Protogel acrylamide (National Diagnostics) gel in 90 mM Tris·Borate, 5 mM MgCl2 at 150 V for 45 min. The DNA was stained by soaking in 2 µg/mL ethidium bromide for 10 min and visualised under UV light."}, "[11]": {"test_system": "M. smegmatis mc^2155", "assay": "Bacterial growth inhibition and colony counting", "assay_type": "cell-based, Mycobacterium smegmatis", "procedure": "as §3"}, "[12]": {"test_system": "E. coli MG1655", "assay": "Bacterial growth inhibition", "assay_type": "cell-based, Escherichia coli", "details": "liquid and solid media", "procedure": "as §3"}, "[13]": {"molecular_target": "T2, M. mazei topo VI", "assay": "Native gel shift assay, topo VI binding to 147 bp DNA fragment", "procedure": "as §4"}}, "note": "“Also recorded” adds a separate entry of the source."}
{"smiles": "CCCCCCc1ccc(O)cc1O", "note": "[Hexylresorcinol]", "values": [{"measurement": "Inhibition of S. shibatae topo VI", "setting": "[1]", "result": "did not display any inhibition"}, {"measurement": "Inhibition in gel-based relaxation assay (hit validation)", "setting": "[2]", "result": "validated as hits"}, {"measurement": "IC50", "setting": "[2]", "result": 30, "unit": "µM"}, {"measurement": "Hypocotyl cell size, seedlings with dwarf morphology", "setting": "[3]", "result": "~50", "unit": "µm"}, {"measurement": "Average hypocotyl length", "setting": "[4]; 40 µM", "result": "considerably reduced"}, {"measurement": "Plants able to develop into a rosette", "setting": "[4]; 40 µM, three-week-old plants", "result": "seven of the 32 plants"}, {"measurement": "Average length of seedlings (hypocotyl)", "setting": "[4]; 50 µM, 10 mm in the absence of drug, 5 days in the dark", "result": "approximately 1 mm"}, {"measurement": "Seed germination", "setting": "[4]; 80 µM", "result": "germination was reduced"}, {"measurement": "Seed germination", "setting": "[4]; 100 µM", "result": "completely preventing seed germination; also recorded: no seeds germinated"}, {"measurement": "Number of seeds germinated", "setting": "[4]; up to 50 µM", "result": "remained constant"}, {"measurement": "Effect on M. mazei topo VI ATPase activity", "setting": "[5]", "result": "appeared to increase the rate of ATP hydrolysis"}, {"measurement": "Effect on M. mazei topo VI ATPase activity", "setting": "[5]; listed as hexylresorcinol", "result": "appears to stimulate hydrolysis of ATP"}]}
{"smiles": "Cc1ccc(C(=O)Nc2ccc(S(=O)(=O)O)c3cc(S(=O)(=O)O)cc(S(=O)(=O)O)c23)cc1NC(=O)c1cccc(NC(=O)Nc2cccc(C(=O)Nc3cc(C(=O)Nc4ccc(S(=O)(=O)O)c5cc(S(=O)(=O)O)cc(S(=O)(=O)O)c45)ccc3C)c2)c1", "note": "[Suramin]", "values": [{"measurement": "Induction of gyrase-mediated DNA cleavage", "setting": "[6]", "result": "did not display any ability to induce cleavage"}, {"measurement": "Inhibition of S. shibatae topo VI", "setting": "[1]", "result": "did not display any inhibition; also recorded: did not inhibit"}, {"measurement": "Inhibition in gel-based relaxation assay (hit validation)", "setting": "[2]", "result": "validated as hits"}, {"measurement": "IC50", "setting": "[2]", "result": 30, "unit": "µM"}, {"measurement": "Mechanism (Topo VI)", "setting": "[2]; summary of mechanistic tests with M. mazei and S. shibatae topo VI", "result": "Blocks DNA binding"}, {"measurement": "Inhibition in gel-based supercoiling assay (hit validation)", "setting": "[7]", "result": "displayed inhibition"}, {"measurement": "IC50", "setting": "[7]; gel supercoiling assay, 1 unit of gyrase (12 nM), read-out: Approx. IC50 against E. coli DNA gyrase", "result": 80, "unit": "µM"}, {"measurement": "Mechanism (DNA gyrase)", "setting": "[7]; summary of this study's mechanistic tests", "result": "Blocks DNA binding"}, {"measurement": "Protection of DNA from Ca2+-induced cleavage by gyrase", "setting": "[8]", "result": "completely protect DNA from cleavage"}, {"measurement": "Inhibition of growth / antimicrobial activity", "setting": "[9]", "result": "no antimicrobial activity"}, {"measurement": "Effect on gel shift of 147 bp DNA by DNA gyrase", "setting": "[10]", "result": "abolishes this shift"}, {"measurement": "Antimicrobial activity", "setting": "[11]", "result": "no antimicrobial activity"}, {"measurement": "Inhibition of growth / antimicrobial activity", "setting": "[12]", "result": "no antimicrobial activity"}, {"measurement": "Effect on binding of M. mazei topo VI to DNA", "setting": "[13]", "result": "appeared to prevent the binding of topo VI to DNA; also recorded: appeared to prevent G-segment binding"}]}
